Measured values from patent US20250255847A1, “[…]s: Novel Drugs for Triple Negative Breast Cancer” (SIMMARON RSEARCH INC, priority 2024, published 2025).

Test system: TM00096 human TNBC tumor
Experiment: Tumor growth in patient-derived xenograft (PDX) mouse model of TNBC
Assay type: in vivo
Settings: for tumor growth by infrared 2DG image analysis: 2 mg/Kg Bwt i.p., end of 4th week; for final tumor volume (mean±SD): after 4 weeks (2 weeks dosing 2 mg/Kg Bwt i.p. alternate days + 2 weeks follow-up), vehicle 949.15±769.15; for initial tumor volume (mean±SD): day 0, 2 mg/Kg Bwt i.p. every alternate day for two weeks
Protocol: FIG. 12 illustrates an embodiment of the present invention and illustrates SIM-1 and SIM-2 arrest the growth of human TNBC tumor in patient-derived xenograft mouse model. TM00096 tumor (origin of invasive ductal carcinoma isolated from a person) was seeded in the flank of 6-week-old female SCID mice by Jackson Laboratory and then shipped to our research facility. Once the tumor reached ˜4 mm in size (˜30 mm^3 in volume), n=6 mice/group were treated by vehicle (5% DMSO), SIM-1 and SIM-2 (2 mg/Kg Bwt mixed with 5% DMSO) via i.p. for 2 weeks in every alternate day. The tumor size was monitored accordingly during the treatment and two more weeks after the last dose to evaluate the recurrence. After 4 weeks, Mice received IRDye 800-tagged 2DG (2-deoxy glucose) probe via tail vein and then imaged in infrared scanner. […] Red spots enclosed in a squares are tumor tissue. Other red spots are non-specific organs with high metabolic activity. (B) Tumor size was measured every alternate day for 4 weeks by a digital caliper and then the volume was calculated using the formula 0.5*Length*Width^2. […] (D) Body weight was recorded during the course of the study to monitor the adverse metabolic outcome due to the drug administration. (E) The heart rate was monitored at 0-, 7-, 14-, and 28-days post SIM-1 and SIM-2 treatments by MouseStat Jr console (Kent Scientific) as per the manufacturer's instruction. (F) At the end of the study, the gross motor performance was recorded for n=6 (i) vehicle, (ii) SIM-1-, and (iii) SIM-2-treated mice. […] Gross movement parameters including (G) the total distance traveled, and (H) the average speed were monitored and plotted by scatter histograms (n=6/group; not significant as shown by one-way ANOVA).
Acquisition, housing, and treatment of PDX mice. Grade 3 invasive ductal carcinoma tumor fragments were harvested from a patient, genotyped for ER-, PR-, and Her2low, and were engrafted in the flank region of 6-to-7-week-old female NOD.Cg-Prkdcscid Il2rgtm1Wjl/SzJ mouse. These tumor-bearing mice were commercially purchased from Jackson Laboratories (Cat #TM00096). Since these mice are severely immunocompromised, special housing was required in a barrier room with restricted air flow and sterile foods. All animal studies were performed under an Institutional Animal Care and Use Committee-approved protocol (Study ID #). […] For the treatment, 2 mg/Kg bwt doses of both SIM-1 and SIM-2 were dissolved in 5% DMSO and then administered intraperitoneally every alternate day for two weeks and followed up for additional two weeks. To ensure safety and toxicity, vital health parameters such as body weight, heart rate, and body temperature were recorded every alternate day for one month. Tumor growth was assessed every alternate day for one month by a digital caliper. Tumor volume was estimated by the formula 0.5× (length×width2). The treatment started once the tumor reached 4 mm in size with an approximate volume of ˜30 mm^3. Mice received drugs for two weeks and left untreated for an additional two weeks to monitor the effect of drug withdrawal on the tumor size. On the penultimate day of the study, mice were injected with 100 μL of […] 2DG dye. The next day, mice were euthanized and then imaged in a Li—CoR infrared scanner to measure tumor size. After that, tumor tissues were harvested from the flank, washed in cold PBS, again imaged with a scalebar, and finally preserved in a −80° C. freezer for subsequent analyses such as genetic and immunoassays.
This example provides a representative experiment of the present invention that studies the effects of both SIM-1 and SIM-2 on the regression and growth arrest of tumors in vivo in the PDX mouse model of TNBC. […]

SMILES	tumor growth by infrared 2DG image analysis	final tumor volume (mean±SD) [mm^3]	initial tumor volume (mean±SD) [mm^3]
O=C(O)CCC(=O)NCc1csc2ccc(Cl)cc12 [SIM-1, 4-[(5-chloro-1-benzothiophen-3-yl)methylamino]-4-oxobutanoic acid]	significantly arrested the growth	126.69±29.98	37.65±15.41
CCOC(=O)c1c(NC(C)=O)sc2c(Cl)c(/C=N/O)ccc12 [SIM-2, ethyl 2-acetamido-7-chloro-6-(hydroxyiminomethyl)-1-benzothiophene-3-carboxylate]	significantly arrested the growth	134.09±41.77	37.43±7.07
